How the values were obtained:
Assay type in all cases: in vivo
[1] = test system: Phakopsora pachyrhizi; assay: Test A: Asian soybean rust control on soybean seedlings; conditions: for Test A disease control rating / pest or weed control at 250 ppm: soybean seedlings, 100 = 100% disease control, 0 = no control; for pest or weed control at 250 ppm: Phakopsora pachyrhizi, read-out: Test A disease control rating
[2] = test system: Puccinia recondita f. sp. tritici; assay: Test B: wheat leaf rust control on wheat seedlings; conditions: for Test B disease control rating / pest or weed control at 250 ppm: wheat seedlings, 100 = 100% disease control, 0 = no control; for pest or weed control at 250 ppm: Puccinia recondita, read-out: Test B disease control rating
[3] = test system: Zymoseptoria tritici; assay: Test C: wheat leaf blotch control on wheat seedlings; conditions: for Test C disease control rating / pest or weed control at 250 ppm: wheat seedlings, 100 = 100% disease control, 0 = no control; for pest or weed control at 250 ppm: Zymoseptoria tritici, read-out: Test C disease control rating
[4] = test system: Plasmopara viticola; assay: Test D: grape downy mildew control on grape seedlings; conditions: for Test D disease control rating / pest or weed control at 250 ppm: 100 = 100% disease control, 0 = no control; for pest or weed control at 250 ppm: Plasmopara viticola, read-out: Test D disease control rating
[5] = test system: Botrytis cinerea; assay: Test E: tomato Botrytis control on tomato seedlings; conditions: for Test E disease control rating / pest or weed control at 250 ppm: 100 = 100% disease control, 0 = no control; for pest or weed control at 250 ppm: Botrytis cinerea, read-out: Test E disease control rating
[6] = test system: Phytophthora infestans; assay: whole plant or invertebrate; conditions: tomato seedlings; for Test F disease control rating / pest or weed control at 250 ppm: 100 = 100% disease control, 0 = no control; for pest or weed control at 250 ppm: Phytophthora infestans, in Solanum lycopersicum, read-out: Test F disease control rating, 250 ppm
[7] = test system: Erysiphe graminis f. sp. tritici; assay: Test G: wheat powdery mildew control on wheat seedlings; conditions: for Test G disease control rating / pest or weed control at 250 ppm: 100 = 100% disease control, 0 = no control; for pest or weed control at 250 ppm: Blumeria graminis, read-out: Test G disease control rating
[8] = rate 250 ppm, relative to the controls

| Structure (SMILES) | Test A disease control rating ([1]; 250 ppm) | Test B disease control rating ([2]; 250 ppm) | Test C disease control rating ([3]; 250 ppm) | Test D disease control rating ([4]; 250 ppm) | Test E disease control rating ([5]; 250 ppm) | Test F disease control rating ([6]; 250 ppm) | Test G disease control rating ([7]; 250 ppm) | further results |
| --- | --- | --- | --- | --- | --- | --- | --- | --- |
| COc1ccnc(C(=O)NC(C)C(=O)OC(C)C2CCC(C)(C)CC2)c1O (mixture of isomers) [Compound 173] | 100% | 98% | 66% | 8% | 0% | 0% | 0% | – |
| COc1ccnc(C(=O)N[C@@H](C)C(=O)OC(c2ccc(C3CCCCC3)cc2)C(F)(F)F)c1OC(C)=O (stereo partly drawn) [Compound 119] | 100% | 99% | 88% | 27% | 0% | 0% | 48% | – |
| COc1ccnc(C(=O)NC(C)C(=O)OC(C)c2ccccc2[N+](=O)[O-])c1O (mixture of isomers) [Compound 16] | 13% | 0% | 76% | 59% | 0% | 0% | 0% | – |
| COc1cccc(C(=O)NC(C)C(=O)OC(C)c2ccccc2Cc2ccccc2)c1O (stereo not drawn) [Compound 5] | 0% | 0% | 0% | 73% | 0% | 39% | 0% | – |
| COc1ccnc(C(=O)NC(C)C(=O)OC(C)c2ccc(Br)s2)c1OC(C)=O (mixture of isomers) [Compound 67] | 13% | 55% | 36% | 53% | 0% | 0% | 0% | – |
| COc1ccnc2c(=O)n([C@@H](C)C(=O)OC(C)c3ccc(C4CCCCC4)cc3)c(=O)oc12 (single isomer, unassigned) [Compound 194] | – | – | – | – | – | – | – | Test A disease control rating (100 = 100% disease control, 0 = no disease control) [1, 8]: 87%; Test B disease control rating (100 = 100% disease control, 0 = no disease control) [2, 8]: 68%; Test C disease control rating (100 = 100% disease control, 0 = no disease control) [3, 8]: 37%; Test D disease control rating (100 = 100% disease control, 0 = no disease control) [4, 8]: 18%; Test E disease control rating (100 = 100% disease control, 0 = no disease control) [5, 8]: 0%; Test F disease control rating (100 = 100% disease control, 0 = no disease control) [6, 8]: 0%; Test G disease control rating (100 = 100% disease control, 0 = no disease control) [7, 8]: 0% |
| COc1ccnc(C(=O)NC(C)C(=O)OC(C)c2ccccc2-n2ccc(C(F)(F)F)n2)c1OC(C)=O (mixture of isomers) [Compound 25] | 97% | 0% | 17% | 41% | 0% | 0% | 0% | – |
| COc1ccnc(C(=O)NC(C)C(=O)OC(C(C)C)C2CCCCC2)c1O (mixture of isomers) [Compound 63] | 100% | 99% | 79% | 81% | 16% | 0% | 0% | – |
| COc1ccnc(C(=O)NC(C)C(=O)OC(C)C2CCC(C(C)(C)C)CC2)c1O (mixture of isomers) [Compound 176] | 99% | 89% | 57% | 14% | 0% | 0% | 0% | – |
| COc1ccnc(C(=O)N[C@H](C(=O)OC(C)c2ccc(C3CCCCC3)cc2)C(C)C)c1OC(C)=O (mixture of isomers) [Compound 79, N-[[3-(acetyloxy)-4-methoxy-2-pyridinyl]carbonyl]-L-valine 1-(4-cyclohexylphenyl)ethyl ester] | – | – | – | – | – | – | – | pest or weed control at 250 ppm ([1]; 250 ppm): 100%; pest or weed control at 250 ppm ([2]; 250 ppm): 100%; pest or weed control at 250 ppm ([3]; 250 ppm): 100%; pest or weed control at 250 ppm ([4]; 250 ppm): 11%; pest or weed control at 250 ppm ([5]; 250 ppm): 0%; pest or weed control at 250 ppm [6]: 0%; pest or weed control at 250 ppm ([7]; 250 ppm): 0% |
| CCC(OC(=O)[C@H](C)NC(=O)c1nccc(OC)c1OCOC(C)=O)c1ccc(C2CCCCC2)cc1 (single isomer, unassigned) [Compound 135] | 100% | 98% | 81% | 29% | 0% | 0% | 86% | – |
| COc1ccnc(C(=O)N[C@@H](C)C(=O)OC(C)C2CCCCC2)c1O (mixture of isomers) [Compound 30, N-[(3-hydroxy-4-methoxy-2-pyridinyl)carbonyl]-L-alanine 1-cyclohexylethyl ester] | – | – | – | – | – | – | – | pest or weed control at 250 ppm ([1]; 250 ppm): 100%; pest or weed control at 250 ppm ([2]; 250 ppm): 100%; pest or weed control at 250 ppm ([3]; 250 ppm): 97%; pest or weed control at 250 ppm ([4]; 250 ppm): 1%; pest or weed control at 250 ppm ([5]; 250 ppm): 0%; pest or weed control at 250 ppm [6]: 0%; pest or weed control at 250 ppm ([7]; 250 ppm): 0% |
| COc1ccnc(C(=O)NC(C)C(=O)OC(C)C2CCCCCC2)c1O (mixture of isomers) [Compound 102] | – | – | – | – | – | – | – | Test A disease control rating ([1]; 50 ppm): 100%; Test B disease control rating ([2]; 50 ppm): 55%; Test C disease control rating ([3]; 50 ppm): 0%; Test D disease control rating ([4]; 50 ppm): 72%; Test E disease control rating ([5]; 50 ppm): 0%; Test F disease control rating ([6]; 50 ppm): 0%; Test G disease control rating ([7]; 50 ppm): 0% |
| COc1ccnc(C(=O)NC(C)C(=O)OC(C)C2CCC(c3ccccc3)CC2)c1O (mixture of isomers) [Compound 103] | 100% | 100% | 99% | 74% | 0% | 0% | 0% | – |
| COc1ccnc(C(=O)N[C@@H](C)C(=O)OC(C)c2cccc(-c3ccccc3)c2)c1O (single isomer, unassigned) [Compound 3] | 100% | 99% | 83% | 32% | 16% | 0% | 0% | – |
| COc1ccnc(C(=O)NC(C)C(=O)OC(C)c2ccncc2)c1O (racemic) [Compound 14] | – | – | – | – | – | – | – | pest or weed control at 250 ppm ([1]; 250 ppm): 0%; pest or weed control at 250 ppm ([2]; 250 ppm): 0%; pest or weed control at 250 ppm ([3]; 250 ppm): 12%; pest or weed control at 250 ppm ([4]; 250 ppm): 48%; pest or weed control at 250 ppm ([5]; 250 ppm): 0%; pest or weed control at 250 ppm [6]: 0%; pest or weed control at 250 ppm ([7]; 250 ppm): 0% |
| COc1ccnc(C(=O)N[C@@H](C)C(=O)OC(C)c2ccc(C(C)C)cc2)c1OC(C)=O (stereo partly drawn) [Compound 117] | 100% | 100% | 94% | 71% | 0% | 0% | 0% | – |
| COc1ccc(COc2c(OC)ccnc2C(=O)NC(C)C(=O)OC(C)c2ccc(C3CCCCC3)cc2)cc1 (mixture of isomers) [Compound 155] | 100% | 99% | 98% | 5% | 0% | 0% | 0% | – |
| COc1ccnc(C(=O)NC(C)C(=O)OC(C)c2ccc(F)cc2Oc2ccccc2)c1O (mixture of isomers) [Compound 81] | 93% | 68% | 78% | 53% | 0% | 0% | 0% | – |
| COc1ccnc(C(=O)NC(C)C(=O)OC(C)c2ccc([N+](=O)[O-])cc2)c1OC(C)=O (mixture of isomers) [Compound 20] | 0% | 68% | 64% | 4% | 0% | 0% | 0% | – |
| COc1ccnc(C(=O)NC(C)C(=O)OC(C)C23CC4CC(CC(C4)C2)C3)c1OC(C)=O (mixture of isomers) [Compound 43] | 100% | 100% | 90% | 71% | 0% | 0% | 0% | – |
